Experimental findings from PubChem BioAssay (NCI) are described below.

Test systems include SF-268 CNS; SK-OV-3 ovarian; SK-MEL-2 melanoma; HCT-15 colon; MCF7 breast; A498 renal; MDA-MB-231 breast; UACC-62 melanoma.
Common to all, as to assay: NCI-60 cell line screen, 48 h

Molecules are shown by their SMILES.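 Step 1: Grow cells in 96-well plates. Step 2: Expose to compound for 48 hours at 5 concentrations. Step 3: Interpolate endpoints linearly; if unreached, use highest concentration. At the GI50, growth is halved. At the TGI there is no net growth.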 Some results are limits rather than exact numbers.

With `Cn1c2ccccc2c(=Nc2ccccc2)c2c3ccccc3[nH]c21`, the GI50 is 0.436 µM in the assay with SF-268 CNS; 2.16 µM with SK-OV-3 ovarian; 3.78 µM with SK-MEL-2 melanoma; 1.51 µM with HCT-15 colon; 0.284 µM with MCF7 breast; 1.34 µM with A498 renal. Also, the GI50 in the assay on MDA-MB-231 breast was 1.62 µM; in the assay on UACC-62 melanoma it was 0.696 µM. Moreover, the TGI was 2.37 µM in the assay on SF-268 CNS; 5.08 µM in the assay with SK-OV-3 ovarian; greater than 100 µM with SK-MEL-2 melanoma; 3.49 µM with HCT-15 colon; 1.86 µM in the assay with MCF7 breast; 3.08 µM with A498 renal. In addition, the results for the TGI with MDA-MB-231 breast and with UACC-62 melanoma were 3.11 µM and 2.01 µM, respectively.

As for `COc1cc(C)c(C(=O)O[C@H]2[C@H](O[C@H]3[C@@H](O)COC(O[C@H]4C[C@H]5[C@@H]6CC=C7C[C@@H](O)CC[C@]7(C)[C@H]6CC[C@]5(C)[C@H]4[C@H](C)C(=O)CCC(C)C)[C@@H]3OC(C)=O)OC[C@@H](O)[C@@H]2O)c(C)c1` (stereo partly specified), the GI50 in the assay on SF-268 CNS is less than 0.01 µM; in the assay on SK-OV-3 ovarian, 0.141 µM; with SK-MEL-2 melanoma, less than 0.01 µM; with HCT-15 colon it was 0.0543 µM; with MCF7 breast, less than 0.01 µM; in the assay on A498 renal it was less than 0.01 µM. In addition, the values for the GI50 in the assay with MDA-MB-231 breast and with UACC-62 melanoma were 0.517 µM and less than 0.01 µM, respectively. In addition, the TGI in the assay with SF-268 CNS is 2.92 µM; with SK-OV-3 ovarian it was 2.73 µM; in the assay with SK-MEL-2 melanoma it was 0.302 µM; with HCT-15 colon it was 1.94 µM; with MCF7 breast it was 7.62 µM; in the assay on A498 renal, less than 0.01 µM. For the same compound, the figures for the TGI in the assay on MDA-MB-231 breast and with UACC-62 melanoma were 16.1 µM and less than 0.01 µM, respectively.

In the case of `CCSc1oc(-c2ccccc2)nc1[P+](c1ccccc1)(c1ccccc1)c1ccccc1`, the GI50 was 0.331 µM with SF-268 CNS; 0.275 µM in the assay with SK-OV-3 ovarian; 0.276 µM in the assay on SK-MEL-2 melanoma; 0.622 µM in the assay on HCT-15 colon; 0.246 µM with MCF7 breast; 0.126 µM in the assay with A498 renal. The GI50 in the assay with MDA-MB-231 breast was 0.266 µM; with UACC-62 melanoma, 0.305 µM. Also, the TGI in the assay with SF-268 CNS is 4.02 µM; in the assay with SK-OV-3 ovarian, 0.977 µM; in the assay with SK-MEL-2 melanoma, 0.866 µM; with HCT-15 colon, 4.66 µM; in the assay on MCF7 breast, 1.28 µM; in the assay on A498 renal it was 0.579 µM. Moreover, the TGI with MDA-MB-231 breast came to 1.08 µM; with UACC-62 melanoma, 1.44 µM.

Consider `CC(C)C[C@H](NC(=O)[C@H](CCc1ccccc1)NC(=O)CN1CCOCC1)C(=O)N[C@@H](Cc1ccccc1)C(=O)N[C@@H](CC(C)C)C(=O)[C@@]1(C)CO1`, for which the GI50 with SF-268 CNS is less than 0.01 µM; in the assay on SK-OV-3 ovarian, 0.0253 µM; in the assay with SK-MEL-2 melanoma it was 0.0144 µM; with HCT-15 colon it was 0.083 µM; with MCF7 breast it was less than 0.01 µM; in the assay with A498 renal it was 0.0227 µM. Besides, the GI50 is less than 0.0128 µM with MDA-MB-231 breast and 0.033 µM in the assay on UACC-62 melanoma. In addition, the TGI with SF-268 CNS stood at 0.252 µM; in the assay on SK-OV-3 ovarian, 0.282 µM; in the assay with SK-MEL-2 melanoma, 0.0543 µM; in the assay on HCT-15 colon, 1.6 µM; in the assay on MCF7 breast, 5.41 µM; in the assay with A498 renal, 0.0987 µM. Further, the TGI was 0.0635 µM with MDA-MB-231 breast and 0.114 µM in the assay with UACC-62 melanoma.

Regarding `O=P(Oc1ccc(Cl)cc1)(Oc1ccc(Cl)cc1)N1CC1`, the TGI in the assay with SF-268 CNS, in the assay with SK-OV-3 ovarian, in the assay with SK-MEL-2 melanoma, in the assay on HCT-15 colon, with MCF7 breast and in the assay on A498 renal was greater than 10 µM throughout. Moreover, the TGI in the assay on MDA-MB-231 breast and in the assay with UACC-62 melanoma was greater than 10 µM throughout.

`C#CCN1C(=O)/C(=c2\sc3n(c2=O)C2C(NN=3)N(CC)C(=O)N2CC)c2ccccc21` (stereo unspecified): the GI50 in the assay on SF-268 CNS was 5.5 µM; in the assay with SK-OV-3 ovarian it was 3.11 µM; with SK-MEL-2 melanoma it was 3.21 µM; in the assay on HCT-15 colon, 0.394 µM; in the assay with MCF7 breast it was 0.377 µM; in the assay with A498 renal, 0.186 µM. Moreover, the GI50 in the assay on MDA-MB-231 breast is 2.07 µM; with UACC-62 melanoma, 0.453 µM. In addition, the TGI in the assay with SF-268 CNS was greater than 100 µM; in the assay on SK-OV-3 ovarian, greater than 100 µM; in the assay with SK-MEL-2 melanoma, greater than 100 µM; in the assay with HCT-15 colon it was greater than 100 µM; with MCF7 breast, greater than 100 µM; with A498 renal it was 0.728 µM. Also, the TGI in the assay on MDA-MB-231 breast is 40 µM; with UACC-62 melanoma, greater than 74.1 µM.

Take `NC(=O)CCC(NC(=O)OCc1ccccc1)C(=O)OCC(=O)c1ccccc1` (stereo unspecified): the GI50 in the assay with SF-268 CNS, in the assay on SK-OV-3 ovarian, in the assay with SK-MEL-2 melanoma, in the assay on HCT-15 colon, with MCF7 breast and in the assay on A498 renal was greater than 100 µM throughout. For the same compound, the GI50 in the assay on MDA-MB-231 breast and in the assay on UACC-62 melanoma was greater than 100 µM each time. Besides, the TGI with SF-268 CNS, in the assay with SK-OV-3 ovarian, in the assay on SK-MEL-2 melanoma, in the assay on HCT-15 colon, in the assay on MCF7 breast and in the assay with A498 renal was greater than 100 µM throughout. Also, the TGI in the assay with MDA-MB-231 breast and in the assay on UACC-62 melanoma was greater than 100 µM each time.

For the compound `COc1ccc(/C(C)=C(\c2ccc(Cl)cc2)c2ccc(OCCN3CCCC3)cc2)cc1`, the GI50 with SF-268 CNS is 4.73 µM; in the assay with SK-OV-3 ovarian it was 6.03 µM; in the assay with SK-MEL-2 melanoma, 6.45 µM; with HCT-15 colon, 1.09 µM; with MCF7 breast, 0.887 µM; with A498 renal, 4.02 µM. For the same compound, the GI50 in the assay on MDA-MB-231 breast was 3.64 µM; in the assay on UACC-62 melanoma, 2.15 µM. The TGI in the assay on SF-268 CNS stood at 9.79 µM; with SK-OV-3 ovarian, 10.7 µM; with SK-MEL-2 melanoma it was 11.6 µM; in the assay with HCT-15 colon it was 4.35 µM; in the assay with MCF7 breast, 5.83 µM; in the assay on A498 renal, 8.38 µM. The TGI in the assay with MDA-MB-231 breast was 7.8 µM; in the assay with UACC-62 melanoma it was 6.53 µM.

As for `Cn1nc(C(F)(F)F)c(-c2ccc(Cl)c(C(F)(F)F)c2)c1-c1ccc(OCc2ccc(Cl)cc2)cc1O`, the GI50 with SF-268 CNS was 1.77 µM; with SK-OV-3 ovarian, 1.42 µM; with SK-MEL-2 melanoma, 1.41 µM; in the assay on HCT-15 colon it was 1.6 µM; in the assay on MCF7 breast it was 1.52 µM; with A498 renal, 1.05 µM. Further, the GI50 is 1.59 µM in the assay with MDA-MB-231 breast and 1.58 µM in the assay with UACC-62 melanoma. Further, the TGI in the assay with SF-268 CNS was determined as 7.52 µM; in the assay with SK-OV-3 ovarian it was 4.32 µM; in the assay on SK-MEL-2 melanoma, 4.52 µM; with HCT-15 colon, 6 µM; in the assay on MCF7 breast it was 6.01 µM; with A498 renal, 4.1 µM. The TGI in the assay on MDA-MB-231 breast turned out to be 5.41 µM; in the assay with UACC-62 melanoma, 5.8 µM.
